In paper PMC10299677, “Fluorinated Benzofuran and Dihydrobenzofuran as Anti-Inflammatory and Potential Anticancer Agents” (International Journal of Molecular Sciences, 2023):

Legend:
IL-6 mRNA = test: LPS-dependent IL-6 mRNA in THP-1-derived macrophages (RT-PCR); type: cell-based, human; settings: 50 µM, 10 ng/ml LPS 6 h
Method: F i g u re S3: Eff ect of benzofuran compounds on the lev els of LP S -dependent mRNA of CCL2 and IL-6 in THP-1 –deriv ed macrophages. Human-monoc yti c cell l ine-THP-1 wer e treat ed with PMA (25 nM for 48 hours) th en in cub ated with 50 μM compounds for 30 minutes b efo re the addit ion of 10 ng/ml LP S fo r 6 hours. Gene ex pression of IL6 and CCL2 were measur ed by RT-PCR and the v alu es wer e nor mal ized to GAPDH. Results represent means ± SEM by one way ANOVA followed by Dunnett test.

COX-2 protein expression = COX-2 protein expression in LPS-treated macrophages (Western blot); type: cell-based, C57BL/6J mice; settings: 10 µM for compounds 1, 7, 9, 50 µM for others, LPS 24 h
Method: (§1) Figure 4 Effects of the fluorinated benzofuran and dihydrobenzofuran on COX-2 and NOS2 protein expressions. COX-2 and NOS2 protein expressions were assessed in macrophages incubated with only 10 µM for compounds 1, 7, and 9, and 50 µM for the other compounds, for 30 min prior to the addition of 10 ng/mL LPS for 24 h. β-actin was used as a loading control, and densitometric analysis was performed using ImageJ software (NIH, MA). Data are expressed as fold of LPS-treated macrophages and represented as mean ± SEM of 4 different experiments; * p < 0.05 versus LPS (one-way ANOVA followed by Dunnett’s test).
(§2) Macrophages were incubated with the compounds for 30 min prior to the addition of 10 ng/mL LPS for 24 h. Protein levels for COX-2 and NOS2 were detected in LPS-stimulated macrophages. As previously described, 10 µg of total protein was assessed. The primary antibodies were developed and characterized as previously described: for COX-2, mouse monoclonal antibody anti-COX-2 (clone COX-214, 1/5000); for NOS2, rabbit polyclonal antibody anti-NOS2 (dilution1/2000 [33]). Antibodies anti-phospho-NF-κB (3033S), phospho-IκBα (9246S), and total IκBα (4814S) were from Cell Signaling Technologies (Danvers, MA, USA). Total NF-κB C-20 (sc-372) was from Santa Cruz Biotechnologies (Dallas, TX, USA), and mouse β-actin (dilution 1/10,000) (Sigma-Aldrich, A5441). Clarity™ western ECL substrate (Bio-Rad Laboratories 10-5061) was used according to the manufacturer’s instructions to reveal positive bands visualized using Bio-Rad ChemiDoc. For Bcl-2 and cleaved PARP-1, HCT116 cells were plated in 6-well plates (200,000 cells per well) for 24 h, and treated with compounds 1 and 2 at 10, 25, and 50 µM for 72 h. Supernatants and cells were collected and lysed using RIPA lysis buffer containing inhibitors of protease. Western blot of Bcl-2 and cleaved PARP-1 was performed using 25 µg of total protein with a rabbit polyclonal antibody anti-Bcl-2 (1/500) (Santa Cruz Biotechnology, sc-492), rabbit polyclonal antibody anti-PARP-1 (1/1000) (Santa Cruz Biotechnology, sc-7150), and mouse anti-β-actin (dilution 1/10,000) (Sigma-Aldrich, A5441).
(§3) Densitometric analyses were performed using ImageJ software (NIH, MA, USA). The ratio of the different analyzed bands to β-actin was determined and data are represented as fold change compared to the LPS-treated cells. Percentage of viable cells for proliferation assay was determined as percentage to control (non-treated cells). For TUNEL assay, apoptotic cells were quantified, and results were expressed as percentage to positive cells (cleaved DNA) compared to control (non-treated cells). Statistical analysis was performed using one-way ANOVA, followed by Dunnett’s multiple comparisons test using GraphPad Prism software. Differences were considered significant when p < 0.05.

[1] = test system: zymosan-induced air pouch inflammation; test: Subcutaneous zymosan-induced air pouch model of inflammation; type: in vivo, C57BL/6J mice; settings: 50 nmol per pouch co-injected with 1% zymosan, 24 h
Method: Figure 5 Effect of fluorinated benzofuran and dihydrobenzofuran on inflammation in the zymosan-treated sterile air pouch model in mice. (A) A timeline for the zymosan-induced inflammation experiments of the air pouch model in C57/BL6 mice. The pouch was formed on day 1 and refilled on day 4 with sterile air. Mice were injected at day 6 with 1% zymosan (w/v in saline), or 0.5 mL of saline for control mice. An amount of 50 nmol of compounds 2, 3, 5, and 6, or vehicle, were co-injected into the air pouch. At 24 h post-treatment, exudates were collected. (B) Recruited cells in the pouch and PGE2 production. (C) Gene expressions of inflammatory enzymes Ptgs2 and Nos2, proinflammatory cytokines Il1α and Il1β, and chemokines Ccl3 and Ccl4. Data correspond to the mean ± SEM (n = 6–8 mice per group); * p < 0.05 compared to the zymosan-treated cells (one-way ANOVA followed by Dunnett’s test).
C57BL/6J female mice (8-week-old, 20–25 g) were kept at 5 per cage on a 12 h light–dark cycle with cotton cocoon as enrichment in temperature- and humidity-controlled rooms. Mice were provided with food and water ad libitum, and food intake and body weight were monitored throughout the study period. Approval for use of animals was obtained from the IACUC (16-11-393). Dorsal air pouches were created in mice as previously described. Six days after the initial injection of sterile air, 0.5 mL of saline containing 100 µM of benzofuran compounds 2, 3, 5, or 6 (50 nmol per pouch) or 0.2% DMSO as vehicle was co-injected in the pouch with 0.5 mL of 0.9% saline (for the control group) or 0.5 mL of 1% zymosan (w/v, for zymosan and zymosan + compound) (Sigma-Aldrich, 400140). At 24 h after treatment, the animals were sacrificed by CO2 inhalation and the air pouch washed, the exudates collected, and the cell number determined. As previously reported, the main subtype of leukocytes present in the air pouch were neutrophils (75%) and monocytes–macrophages (12–15%), as determined by selective flow cytometry. The concentrations of PGE2, CCL2, and IL-6 and the gene expression were assessed as described previously.
For gene expression, RT-PCR was performed as described previously. Briefly, cell pellets obtained by centrifugation of air pouch exudates at 300× g for 5 min at 4 °C were suspended in TriPure (Sigma Aldrich 11667165001). An amount of 2 μg of total RNA was reverse-transcribed using iScript cDNA synthesis kit (Bio-Rad Laboratories, 1708891). RT-PCR was carried out on CFX384 cycler using iTaq Universal SYBR Green Supermix kit (Bio-Rad Laboratories, 1725121) and the primers obtained from TIB Molbiol (Berlin, Germany). Oligonucleotide sequences were according to the references, except for Ptgs2 and Nos2, which were as follows: Ptgs2 (F): […]; Ptgs2 (R): […]; Nos2 (F): […]; Nos2 (R): […]. Gene expression was calculated using ^ΔΔCT method relative to the housekeeping gene 18S.

NOS2 protein expression = NOS2 protein expression in LPS-treated macrophages (Western blot); type: cell-based, C57BL/6J mice; settings: 50 µM, LPS 24 h
Method: as §1, §2
as §3, with “Differences were considered significant when p < 0.05.” left out

Compound	effect on IL-6 mRNA levels (IL-6 mRNA)	effect on LPS-induced COX-2 protein expression (COX-2 protein expression)	IL-6 production in air pouch, ELISA [1]	PGE2 levels in air pouch exudates [1]	number of cells of the air pouch exudates [1]	gene expression of proinflammatory genes (Il1a, Il1b, Ccl3, Ccl4, Ptgs2, Nos2) in air pouch cells ([1]; RT-PCR)	effect on LPS-dependent NOS2 protein expression (NOS2 protein expression)	CCL2 formation in air pouch, ELISA [1]	expression of Ccl4 in air pouch cells ([1]; RT-PCR)
COC(=O)/C=C1/Oc2ccc(Br)cc2C1(F)F [Compound 1]	decreased significantly	loss of this inhibitory effect	–	–	–	–	–	–	–
O=C(O)/C=C1/Oc2ccc(Br)cc2C1(F)F [Compound 2]	decreased significantly	significantly decreased	inhibited	inhibited	significantly reduced	strong inhibition	inhibition	–	–
O=C(O)/C=C1\Oc2ccc(Br)cc2C1(F)F [Compound 3]	to a lesser extent	–	–	inhibited	significantly reduced	–	inhibition	inhibited	modestly inhibited
O=C(O)Cc1oc2ccc(-c3ccccc3)cc2c1F [Compound 5]	–	no effect	–	–	significantly reduced	–	no effect	inhibited	–
C=C(C)c1ccc2oc(CC(=O)O)c(F)c2c1 [Compound 6]	–	no effect	inhibited	inhibited	significantly reduced	–	no effect	inhibited	modestly inhibited
